The experiment concerns the target T1, MBP-PAI (Cutibacterium acnes, UniProt Q6A8X5).
T1 construct: gene PPA1039; PAI (about 50 kDa); synthesized gene in pET-24a(+), E. coli BL21(DE3)
T1 sequence (Q6A8X5 1-424): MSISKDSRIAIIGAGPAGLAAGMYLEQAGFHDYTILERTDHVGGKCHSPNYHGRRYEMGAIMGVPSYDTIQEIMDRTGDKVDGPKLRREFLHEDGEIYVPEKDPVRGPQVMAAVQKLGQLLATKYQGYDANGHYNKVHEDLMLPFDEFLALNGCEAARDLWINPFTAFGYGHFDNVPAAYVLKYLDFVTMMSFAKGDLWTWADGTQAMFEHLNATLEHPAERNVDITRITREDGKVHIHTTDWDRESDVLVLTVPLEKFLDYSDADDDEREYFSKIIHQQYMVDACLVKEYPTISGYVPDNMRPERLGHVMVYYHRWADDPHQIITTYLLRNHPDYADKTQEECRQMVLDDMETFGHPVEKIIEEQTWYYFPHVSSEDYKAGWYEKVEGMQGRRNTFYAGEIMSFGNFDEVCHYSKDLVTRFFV
The experiment can be described thus: spectrophotometry at […] nm, CLA formation, Lineweaver-Burk. The following applies: optimal conditions (37 °C, pH 7.5, 1 mmol/L Tween-20); LA 71-1428 μM; MBP tag not cleaved; apparent. The class given is biochemical.

On to `CCCCC/C=C\C/C=C\CCCCCCCC(=O)O` [linoleic acid], for which the Km was 254 µM.

As usually defined, the Km is the substrate concentration at which the rate is half of its maximum.

Values taken from article PMC9141242, “Enhanced Soluble Expression of Linoleic Acid Isomerase by Coordinated Regulation of Promoter and Fusion Tag in Escherichia coli” (Foods, 2022).
